According to article PMC9804781, “Identification of a Novel Pseudo‐Natural Product Type IV IDO1 Inhibitor Chemotype” (Angewandte Chemie (International Ed. in English), 2022):
Like-named read-outs stand apart in the source and are kept apart here.

What was measured:
Assay type in all cases: cell-based
Kyn levels in HeLa cells = experiment: Manual Kyn assay in HeLa cells (p-DMAB detection); conditions: IFN-γ, L-Trp, compounds 48 h, p-DMAB, mean n=3 ±SD, read-out: Kyn Assay IC50
Description: Mammalian cell lines were maintained at 37°C and 5% CO2 in a humidified atmosphere and sub-cultivated twice a week. All cell lines were tested regularly for mycoplasma contamination and were always free of mycoplasma. BxPC-3 cells (DSMZ#760) were grown in RPMI-1640 medium supplemented with 10% FBS, 2 mM L-glutamine, 1 mM sodium pyruvate, 4.5 g/L glucose, 10 mM HEPES and 1.5 g/L NaHCO3. HeLa cells (DSMZ#57) were cultivated in DMEM supplemented with 10% FBS, 4.5 g/L glucose, 4 mM L-glutamine 1 mM sodium pyruvate, 1% non-essential amino acids, 3.7 g/L NaHCO3. SKOV-3 cells (ATCC#HTB-77) were maintained in modified McCoy’s 5A medium supplemented with 10% FBS, 1.5 mM L-glutamine and 2.2 g/L NaHCO3. […]
For manual testing, BxPC-3, HeLa or SKOV-3 cells (20,000 cells/well, 5,000 cells/well or 6,250 cells/well, respectively) were seeded in 96-well plates (BxPC-3 and HeLa) or 384-well plates (SKOV-3) in medium without phenol red. After 24 h, the IDO1 pathway was induced by addition of 50 ng/mL (BxPC-3 and HeLa) or 17.6 ng/mL IFN-γ (SKOV-3) and 380 µM (BxPC-3), 164.15 µM (HeLa) or 450 µM L-Trp (SKOV-3) with simultaneous treatment with the compounds at the indicated concentrations followed by incubation for 48 h. For the hemin competition assay, hemin was added together with IFN-γ, L-Trp and the compounds. Subsequently, trichloroacetic acid was added to a final concentration of 7% (v/v), the plates were incubated for 15 min at room […]
temperature and centrifuged for 10 min at 1800 x g. Afterwards, an equal volume of freshly prepared 2% (w/v) p-DMAB in glacial acetic acid (Ehrlich reagent) was added prior to measuring the absorbance at 492 nm and 650 nm on the Spark® Multimode Microplate Reader (Tecan, AT).
To determine the Kyn levels, the absorbance of the Kyn-p-DMAB adduct A492 was subtracted by the background absorbance A650 and normalized to the DMSO control. Data analysis was performed using a non-linear regression curve fit and GraphPad Prism 9.0 (GraphPad Software, Inc, US) to generate dose-response curves and obtain IC50 values. […]
Subsequently, 10 mM ascorbic acid, 10 μM methylene blue, 2 mM L-Trp and 100 μg/mL catalase were added and samples were incubated for 60 min at room temperature or 37°C. […]

[1] = test system: L-Trp uptake in BxPC-3 cells; experiment: Trp uptake assay in BxPC-3 cells (HPLC-MS/MS); conditions: BxPC-3 starved for L-Trp 72 h, ±IFN-γ; 5 mM L-Leu, 1 mM 1-MT, 5 µM compound
Description: GraphPad Prism 9.0 (GraphPad Software, Inc, US) to generate dose-response curves and obtain […]
IDO1 promoter reporter gene assay
HEK293T cells (25,000 cells/well) were reverse-transfected with pXPG-IDO1[16] (4 µg/96-well plate, kindly provided by Gina M. Doody, Leeds, UK) and pRL-TK (300 ng/96-well plate, Promega, US) using Lipofectamine™ 2000 (Invitrogen, USA) pri or to incubation for 24 h. Afterwards, cells were treated with 50 ng/mL IFN-γ and the compounds for 48 h. Luminescence generated by the Fluc reporter and the control reporter Rluc was measured using the Dual-Glo ® Luciferase Assay System (Promega, US) on the Spark® Multimode Microplate Reader (Tecan, AT). To determine the IDO1 promoter activity, Fluc signals were divided by Rluc signals and normalized to the values of the DMSO control. Data analysis was performed using a non-linear regression curve fit and […]
BxPC-3 cells (30,000 cells/well) were seeded in 96-well plates in Trp-free RPMI 1640 medium and incubated for 48 h prior addition of 50 ng/mL IFN-γ. Trp starvation was continued for another 24 h. Afterwards, medium was exchanged for Trp-free medium containing the control inhibitors 5 mM L-Leu (inhibitor of system-L amino acid transporters (LAT)), 1 mM 1-methyl-L-tryptophan (inhibitor of tryptophanyl-tRNA synthetase (TrpRS)) and compounds and cells were incubated for 30 min. Subsequently, 50 µM L-Trp was added and samples were incubated for another 30 min.
The supernatant was transferred to a new plate, trichloroacetic acid was added to a final concentration of 7% (v/v) and plates were incubated for 15 min at room temperature. Samples were centrifuged for 10 min at 1800 x g and L-Trp was quantified by HPLC-MS/MS using the LTQ Velos Pro and Dionex HPLC (Thermo Fisher Scientific, US). Data analysis was performed with Xcalibur™ (Thermo Fisher Scientific, US) and repres ented using GraphPad Prism 9.0 (GraphPad […]
RNA purification and RT-qPCR
HeLa cells (250,000 cells/well) were seeded in 6-well plates and incubated for 24 h prior addition of 50 ng/mL IFN-γ and compounds. […]

[2] = test system: Kyn levels in BxPC-3 cells; experiment: Automated (high-throughput) Kyn assay in BxPC-3 cells (Kyn sensor); conditions: Homo sapiens, BXPC-3; footnote e: value from automated Kyn Assay
Description: Mammalian cell lines were maintained at 37°C and 5% CO2 in a humidified atmosphere and sub-cultivated twice a week. All cell lines were tested regularly for mycoplasma contamination and were always free of mycoplasma. BxPC-3 cells (DSMZ#760) were grown in RPMI-1640 medium supplemented with 10% FBS, 2 mM L-glutamine, 1 mM sodium pyruvate, 4.5 g/L glucose, 10 mM […]
HEPES and 1.5 g/L NaHCO3. […]
High-throughput Kyn assay
Automated screening for modulators of Kyn levels in BxPC-3 cells was performed as published earlier.[2] Briefly, BxPC-3 cells (1,000 cells/well) were seeded in black 1536-well plates prior to incubation for 24 h and subsequent treatment with compounds, 380 µM L-Trp and 50 ng/mL IFN-γ for 48 h. Afterwards, trichloroacetic acid was added to a final concentration of 7% (v/v), the plates were incubated for 10 min at 37°C and centrifuged for 10 min at 1620 x g. Kyn was detected by addition of 17.5 µM Kyn sensor[14] in assay buffer (excitation: 535 nm, emission: […]

Row | Compound | IC50 (Kyn levels in HeLa cells; Homo sapiens, HeLa, 48 h) | also measured
1 | CCOC(=O)C1=CC[C@](C(=O)OC)(c2cc3ccccc3n2C)N(S(C)(=O)=O)[C@@H]1C(=O)OC(C)(C)C [Compound 3f] | 0.08 ± 0.01 µM | IC50 (Kyn levels in HeLa cells; listed as 3f^bc): 0.09 ± 0.01 µM
2 | CC(C)C[C@H](N)C(=O)O [L-Leu, L-leucine] |  | uptake (import) of L-Trp [1]: inhibit the uptake
3 | COC(=O)[C@]1(c2cc3ccccc3n2C)CC=C(C(=O)OCc2ccccc2)[C@@H](C(=O)OC(C)(C)C)N1S(=O)(=O)c1ccccc1[N+](=O)[O-] [Compound 3l] |  | IC50 (Kyn levels in HeLa cells; listed as 3l^a): 2.88 ± 0.13 µM; IC50 (Kyn levels in HeLa cells): 1.39 ± 0.09 µM
4 | CCOC(=O)[C@@H]1C(C(=O)OC(C)(C)C)=CC[C@H](c2cc3ccccc3n2C)N1S(=O)(=O)c1ccc(C)cc1 [Compound 3k] | 1.63 ± 0.16 µM | 
5 | COC(=O)[C@]1(c2cc3ccccc3n2C)CC=C(C(=O)OC(C)(C)C)[C@@H](C(=O)OC(C)(C)C)N1S(=O)(=O)c1ccccc1[N+](=O)[O-] [Compound 3o] |  | IC50 (Kyn levels in HeLa cells; listed as 3o^a): 0.82 ± 0.7 µM; IC50 (Kyn levels in HeLa cells; listed as 3o^b): 0.16 ± 0.05 µM; IC50 (Kyn levels in HeLa cells): 0.65 ± 0.08 µM
6 | CCOC(=O)C1=CC[C@H](c2cc3ccccc3n2C)N(S(=O)(=O)c2ccccc2[N+](=O)[O-])[C@@H]1C(=O)OC(C)(C)C [Compound 3c] |  | IC50 (Kyn levels in HeLa cells; listed as 3c^b): 0.48 ± 0.06 µM; IC50 (Kyn levels in HeLa cells): 1.04 ± 0.08 µM
7 | CCOC(=O)C1=CC[C@](C(=O)OC)(c2cc3ccccc3n2C)N(S(=O)(=O)c2ccc(F)cc2)[C@@H]1C(=O)OC(C)(C)C [Compound 3q] | 0.11 ± 0.02 µM | 
8 | CCOC(=O)C1=CC[C@](C(=O)OC)(c2cc3ccccc3n2C)N(S(=O)(=O)c2cccc(C(F)(F)F)c2)[C@@H]1C(=O)OC(C)(C)C [Compound 3i] | 1.54 ± 0.41 µM | 
9 | COC(=O)[C@]1(c2cc3ccccc3n2C)CC=C(C(=O)OCc2ccccc2)[C@@H](C(=O)OC(C)(C)C)N1S(=O)(=O)c1ccc(C)cc1 [Compound 3p] | 1.65 ± 0.23 µM | 
10 | Cn1c([C@H]2CC=C(C(=O)OCc3ccccc3)[C@@H](C(=O)OC(C)(C)C)N2S(=O)(=O)c2ccccc2[N+](=O)[O-])cc2ccccc21 [Compound 3r] | 0.89 ± 0.19 µM | 
11 | Cn1cc(C[C@H](N)C(=O)O)c2ccccc21 [Compound 1-MT, 1-methyl-L-tryptophan] |  | uptake (import) of L-Trp [1]: inhibit the uptake
12 | CCOC(=O)C1=CC[C@](C(=O)OC)(c2cc3ccccc3n2C)N(S(=O)(=O)c2ccc(Br)cc2)[C@@H]1C(=O)OC(C)(C)C [Compound 3h] | 0.43 ± 0.15 µM | 
13 | CCOC(=O)C1=CC[C@H](c2cc3ccccc3n2C)N(S(=O)(=O)c2ccc(C)cc2)[C@@H]1C(=O)OC(C)(C)C [3e^e] |  | IC50 [2]: 0.26 ± 0.05 µM

The next lines start with results.

Row | IC50 (Kyn levels in HeLa cells; Homo sapiens, HeLa, 48 h) | Compound | also measured
14 | 7.52 ± 0.8 µM | CCOC(=O)C1=CC[C@](C(=O)OC)(c2cc3ccccc3n2C)N(S(=O)(=O)c2ccccc2[N+](=O)[O-])[C@@H]1C(=O)OCc1ccccc1 [Compound 3n] | 
15 | 0.08 ± 0.01 µM | CCOC(=O)C1=CC[C@](C(=O)OC)(c2cc3ccccc3n2C)N(S(=O)(=O)c2ccccc2)[C@@H]1C(=O)OC(C)(C)C [Compound 3g] | 
16 | 2.46 ± 0.29 µM | CCOC(=O)[C@@H]1C(C(=O)OC(C)(C)C)=CC[C@](C(=O)OC)(c2cc3ccccc3n2C)N1S(=O)(=O)c1ccccc1[N+](=O)[O-] [Compound 3m] | 
17 | > 10 µM | CCOC(=O)C1=CC[C@@](C(=O)OC)(c2cc3ccccc3n2C)N(S(=O)(=O)c2ccccc2[N+](=O)[O-])[C@H]1C(=O)OCC [3a^a] | 
18 | 0.76 ± 0.04 µM | CCOC(=O)[C@@H]1C(C(=O)OC(C)(C)C)=CC[C@](C(=O)OC)(c2cc3ccccc3n2C)N1S(=O)(=O)c1ccc(C)cc1 [Compound 3j] | 
